The source of these data is patent publication US11390812B2, “Compound, composition, cured object, optically anisotropic body, and reflective film” (FUJIFILM Corporation, priority 2018, dated 2022).

Holding throughout (assay type): physicochemical
The nature of series [1]: Light fastness test of optically anisotropic film. The conditions noted are these: film of compound 50 parts with B-2 50 parts; xenon, 5 million lx·h for 50 hours, 63° C., 50% RH, oxygen-blocking; transmittance change at 420 nm. As for the experimental part: <Light Fastness Evaluation>
(Production of Optically Anisotropic Film)
A coating liquid having the following composition was prepared and applied to a rubbing-treated glass equipped with an alignment film by spin-coating. Each composition was irradiated with ultraviolet rays of 500 mJ/cm^2 through a filter that cuts light having a wavelength of 350 nm or less on a hot plate heated to a temperature until showing a nematic phase, and thereby an optically anisotropic film was produced.
The produced optically anisotropic film was irradiated with light using a Super Xenon Weather Meter SX75 manufactured by Suga Test Instruments Co., Ltd. Using KU-1000100 manufactured by King Seisakusho Co., Ltd. as a UV cut filter, a light fastness test was conducted by irradiation of 5 million l×h of light for 50 hours under an oxygen-blocking condition. A temperature of the test subject (a temperature inside the test device) was set to 63° C. A relative humidity in the test device was 50% RH.
A transmittance change of the optically anisotropic film before and after the light fastness test was measured. Light fastness in a case where a transmittance change at 420 nm was less than 5% was evaluated as A, and light fastness in a case where a transmittance change at 420 nm was 5% or more was evaluated as B. As a transmittance change became small, light fastness was more excellent.

Series [2] can be described thus: Solubility evaluation in methyl ethyl ketone. The conditions noted are these: room temperature (23° C.), precipitation concentration. The procedure:
Solubility of each of the compounds in methyl ethyl ketone was evaluated. A solution in which the compound was ultrasonically dissolved or dissolved by heating was produced. […] Solutions were produced at various concentrations for each of the compounds, and solubility of the compound was evaluated according to the following criteria, using a concentration at which the compound was precipitated as a precipitation concentration. As a precipitation concentration became higher, solubility of the compound was more excellent.
A: a precipitation concentration was 20% by mass or more
B: a precipitation concentration was 10% by mass or more and less than 20% by mass
C: a precipitation concentration was less than 10% by mass

A short description of series [3]: Measurement of solution absorption spectrum (colorability evaluation). The note with it: chloroform solution, 1 cm cell; for λmax: wavelength of maximum light absorption coefficient in the region of 300 nm or more; for λ (1000): wavelength showing light absorption coefficient ε of 1000 in the region of 300 nm or more. As for the experimental part:
<Measurement of Solution Absorption Spectrum (Colorability Evaluation)>
A solution absorption spectrum of each of the compounds was measured using a spectrophotometer UV-3100PC manufactured by Shimadzu Corporation. Using chloroform as a solvent, a solution in which a predetermined amount of the compound was dissolved was measured in a 1 cm cell, and λmax and λ (1000) were calculated from the obtained spectrum and molecular weight. λmax represents a wavelength showing the maximum light absorption coefficient in the region of 300 nm or more, and λ (1000) represents a wavelength showing a light absorption coefficient ε of 1000 in the region of 300 nm or more. It can be evaluated that as wavelengths of λmax and λ (1000) became smaller (as wavelengths became shorter), colorability of the compound was more inhibited.
For example, λmax is preferably 310 nm or less. In addition, λ (1000) is preferably 350 nm or less and more preferably 325 nm or less.

Series [4] can be described thus: Measurement of Δn (refractive index anisotropy), wedge-shaped liquid crystal cell. The note with it: at 550 nm and 30° C.; for compounds liable to crystallize estimated from extrapolated values of mixtures with other liquid crystals. The text has this: As a method of measuring the Δn, a method using a wedge-shaped liquid crystal cell described on page 202 of the Liquid Crystal Handbook (edited by Liquid Crystal Handbook Editing Committee, published by Maruzen Co., Ltd.) is generally used. In a case of a compound which is liable to crystallize, it is also possible to carry out evaluation with a mixture thereof with other liquid crystals and to estimate Δn from extrapolated values thereof.
The Δn corresponds to a measurement value at a wavelength of 550 nm at 30° C.
<Measurement of Δn (Refractive Index Anisotropy)>
Δn of each of the compounds was measured by a method using a wedge-shaped liquid crystal cell described on page 202 of the Liquid Crystal Handbook (edited by Liquid Crystal Handbook Editing Committee, published by Maruzen Co., Ltd.). In a case of the compound which is liable to crystallize, evaluation with a mixture thereof with other liquid crystals was carried out and Δn was estimated from extrapolated values thereof. The values in the table represent Δn's at 550 nm and 30° C.
Δn in Comparative Example 1 is a measurement value in a nematic phase.

Consider `C=CC(=O)OCCc1ccc(C#Cc2ccc(COc3ccc(C#Cc4ccc(CCOC(=O)C=C)cc4)cc3C)cc2)cc1` [Compound A-3], for which the Light fastness entry in series [1] is “A (a transmittance change at 420 nm was less than 5%)”. For the same compound, the Solubility result in series [2] was “B (a precipitation concentration was 10% by mass or more and less than 20% by mass)”. Also, in series [3], the λmax worked out at 308 nm and the “λ (1000)” value is reported as 327 nm. Moreover, the Δn in series [4] was 0.34.

With `CC(=O)OCCCCCCCCCCOc1ccc(C#Cc2ccc(OC(=O)c3ccc(C#Cc4ccc(OCCCCCCCCCCOC(C)=O)c(F)c4)cc3)cc2)cc1F` [Compound B-1, reference compound], the Light fastness entry in series [1] is reported as “B (a transmittance change at 420 nm was 5% or more)”. Further, in series [2], the Solubility entry is “C (a precipitation concentration was less than 10% by mass)”. For the same compound, in series [3], the λmax is recorded as 315 nm and the “λ (1000)” value came to 364 nm. In addition, in series [4], the Δn is recorded as 0.25.

`C=CC(=O)OCCc1ccc(C#Cc2ccc(COc3ccc(C#Cc4ccc(CCOC(=O)C=C)cc4)cc3C(F)(F)F)cc2)cc1` [Compound A-4]: the Light fastness entry in series [1] is “A (a transmittance change at 420 nm was less than 5%)”. Also, the Solubility entry in series [2] is “A (a precipitation concentration was 20% by mass or more)”. Moreover, in series [3], the λmax came to 309 nm and the “λ (1000)” value is 325 nm. The Δn in series [4] is listed as 0.36.

Take `C=CC(=O)OCCc1ccc(C#Cc2ccc(COc3ccc(C#Cc4ccc(CCOC(=O)C=C)cc4)cc3C(=O)OC(C)(C)C)cc2)cc1` [Compound A-7]: the Light fastness result in series [1] is recorded as “A (a transmittance change at 420 nm was less than 5%)”. Further, the Solubility result in series [2] was “A (a precipitation concentration was 20% by mass or more)”. Moreover, in series [3], the λmax stood at 309 nm and the “λ (1000)” value came to 339 nm. The Δn in series [4] is listed as 0.33.

For `C=CC(=O)OCCc1ccc(C#Cc2ccc(COc3ccc(C#Cc4ccc(CCOC(=O)C=C)cc4)cc3C(=O)OC)cc2)cc1` [Compound A-6], in series [1], the Light fastness entry is “A (a transmittance change at 420 nm was less than 5%)”. Further, in series [2], the Solubility result is reported as “A (a precipitation concentration was 20% by mass or more)”. Further, in series [3], the λmax was found to be 308 nm and the “λ (1000)” value is 343 nm. In addition, the Δn in series [4] is reported as 0.37.

With `C=CC(=O)OCCc1ccc(C#Cc2ccc(COc3ccc(C#Cc4ccc(CCOC(=O)C=C)cc4)cc3C(C)(C)C)cc2)cc1` [Compound A-5], the Light fastness entry in series [1] is reported as “A (a transmittance change at 420 nm was less than 5%)”. For the same compound, the Solubility entry in series [2] is reported as “A (a precipitation concentration was 20% by mass or more)”. Further, in series [3], the λmax was found to be 308 nm and the “λ (1000)” value stood at 329 nm. Further, the Δn in series [4] was 0.33.

In the case of `C=CC(=O)OCCc1ccc(C#Cc2ccc(CCc3ccc(C#Cc4ccc(CCOC(=O)C=C)cc4)cc3)cc2)cc1` [Compound A-1], the Light fastness entry in series [1] was “A (a transmittance change at 420 nm was less than 5%)”. Also, the Solubility entry in series [2] is given as “C (a precipitation concentration was less than 10% by mass)”. Further, in series [3], the λmax is given as 309 nm and the “λ (1000)” value came to 320 nm. The Δn in series [4] is reported as 0.30.

Turning to `C=CC(=O)OCCc1ccc(C#Cc2ccc(COc3ccc(C#Cc4ccc(CCOC(=O)C=C)cc4)cc3)cc2)cc1` [Compound A-2], the Light fastness result in series [1] is “A (a transmittance change at 420 nm was less than 5%)”. For the same compound, in series [2], the Solubility result is listed as “C (a precipitation concentration was less than 10% by mass)”. In series [3], the λmax is 309 nm and the “λ (1000)” value is 327 nm. For the same compound, the Δn in series [4] is 0.34.
